Laboratory results reported in patent publication US8580762B2, “Substituted purine and 7-deazapurine compounds” (Epizyme, Inc., priority 2010, dated 2013).
pIC50: −log10 of the molar value.

molecular target: DOT1L(1-416) (Homo sapiens, UniProt Q8TEK3); assay: Determination of IC50: DOT1L(1-416) methyltransferase assay, 3H-SAM, oligonucleosome substrate, Flashplate; type: biochemical; settings: class symbols; read-out: DOT1L IC50
In short: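 Compounds in 10-point 3-fold DMSO dilutions were tested in reactions started with substrate mix of 200 nM [3H]-SAM, 600 nM unlabeled SAM and 20 nM oligonucleosome. Reactions ran 120 min at room temperature and were quenched with 100 μM SAM. Labeled substrate was captured on streptavidin Flashplates and counted by scintillation to give IC50.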

DOT1L(1-416), sequence (Q8TEK3 1-416): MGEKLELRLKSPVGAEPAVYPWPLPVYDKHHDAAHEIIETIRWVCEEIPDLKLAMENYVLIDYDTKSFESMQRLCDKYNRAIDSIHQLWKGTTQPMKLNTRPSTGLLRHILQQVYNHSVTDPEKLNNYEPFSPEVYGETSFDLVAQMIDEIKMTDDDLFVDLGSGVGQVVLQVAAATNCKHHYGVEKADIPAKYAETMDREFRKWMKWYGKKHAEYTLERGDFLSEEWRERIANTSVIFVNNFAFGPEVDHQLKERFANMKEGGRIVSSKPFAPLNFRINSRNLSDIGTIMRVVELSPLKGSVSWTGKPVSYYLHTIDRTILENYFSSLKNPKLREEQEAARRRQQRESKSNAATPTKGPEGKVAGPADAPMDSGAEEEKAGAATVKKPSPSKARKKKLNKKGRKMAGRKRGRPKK

Row | pIC50 | SMILES
1 | > 7.00 | CN(C[C@H]1O[C@@H](n2cnc3c(N)ncnc32)[C@H](O)[C@@H]1O)[C@H]1C[C@H](CCc2nc3cc(C(C)(C)C)ccc3[nH]2)C1 [Compound 72, (2R,3R,4S,5R)-2-(6-amino-9H-purin-9-yl)-5-((((1s,3R)-3-(2-(5-(tert-butyl)-1H-benzo[d]imidazol-2-yl)ethyl)cyclobutyl)(methyl)amino)methyl)tetrahydrofuran-3,4-diol]
2 | > 7.00 | CC(C)N(C[C@H]1O[C@@H](n2ccc3c(N)ncnc32)[C@H](O)[C@@H]1O)[C@H]1C[C@H](CCc2nc3cc(OC(F)(F)F)ccc3[nH]2)C1 [Compound 76, (2R,3R,4S,5R)-2-(4-amino-7H-pyrrolo[2,3-d]pyrimidin-7-yl)-5-((isopropyl((1s,3R)-3-(2-(5-(trifluoromethoxy)-1H-benzo[d]imidazol-2-yl)ethyl)cyclobutyl)amino)methyl)tetrahydrofuran-3,4-diol]
3 | 6.00 to 7.00 | CC(C)(C)c1ccc2[nH]c(CC[C@H]3C[C@H](N(C[C@H]4O[C@@H](n5ccc6c(N)ncnc65)[C@H](O)[C@@H]4O)CC(F)(F)F)C3)nc2c1 [Compound 77, (2R,3R,4S,5R)-2-(4-amino-7H-pyrrolo[2,3-d]pyrimidin-7-yl)-5-((((1s,3R)-3-(2-(5-(tert-butyl)-1H-benzo[d]imidazol-2-yl)ethyl)cyclobutyl)(2,2,2-trifluoroethyl)amino)methyl)tetrahydrofuran-3,4-diol]
4 | 5.00 to 6.00 | CC(C)(C)c1ccc2[nH]c(CC[C@H]3C[C@@H](N(C[C@H]4O[C@@H](n5ccc6c(N)ncnc65)[C@H](O)[C@@H]4O)CC(F)(F)F)C3)nc2c1 [Compound 78, (2R,3R,4S,5R)-2-(4-amino-7H-pyrrolo[2,3-d]pyrimidin-7-yl)-5-((((1r,3S)-3-(2-(5-(tert-butyl)-1H-benzo[d]imidazol-2-yl)ethyl)cyclobutyl)(2,2,2-trifluoroethyl)amino)methyl)tetrahydrofuran-3,4-diol]
5 | 6.00 to 7.00 | CC(C)(C)c1ccc2[nH]c(CC[C@H]3C[C@H](N(C[C@H]4O[C@@H](n5cnc6c(N)ncnc65)[C@H](O)[C@@H]4O)CC(F)(F)F)C3)nc2c1 [Compound 80, (2R,3R,4S,5R)-2-(6-amino-9H-purin-9-yl)-5-((((1s,3R)-3-(2-(5-(tert-butyl)-1H-benzo[d]imidazol-2-yl)ethyl)cyclobutyl) (2,2,2-trifluoroethyl)amino)methyl)tetrahydrofuran-3,4-diol]
6 | 6.00 to 7.00 | CC(C)(C)c1ccc2[nH]c(CCC3CC(N(C[C@H]4O[C@@H](n5cnc6c(N)ncnc65)[C@H](O)[C@@H]4O)CC(F)(F)F)C3)nc2c1 (stereo partly drawn) [Compound 82, (2R,3R,45,5R)-2-(6-amino-9H-purin-9-yl)-5-(((3-(2-(5-(tert-butyl)-1H-benzo[d]imidazol-2-yl)ethyl)cyclobutyl) (2,2,2-trifluoroethyl)amino)methyl)tetrahydrofuran-3,4-diol]
7 | 5.00 to 6.00 | CC(C)N(C[C@@H]1C[C@@H](O)[C@H](n2ccc3c(N)ncnc32)C1)C1CC(CCc2nc3cc(Cl)c(C(F)(F)F)cc3[nH]2)C1 (stereo partly drawn) [Compound 84, (1R,2R,4S)-2-(4-amino-7H-pyrrolo[2,3-d]pyrimidin-7-yl)-4-(((3-(2-(5-chloro-6-(trifluoromethyl)-1H-benzo[d]imidazol-2-yl)ethyl)cyclobutyl) (isopropyl)amino)methyl)cyclopentanol]

More lines, now with the values behind:

Row | SMILES | pIC50
8 | CCN(C[C@H]1O[C@@H](n2cnc3c(N)ncnc32)[C@H](O)[C@@H]1O)[C@H]1C[C@@H](CCc2nc3cc(C(C)(C)C)ccc3[nH]2)C1 [Compound 73, (2R,3R,4S,5R)-2-(6-amino-9H-purin-9-yl)-5-((((1r,35)-3-(2-(5-(tert-butyl)-1H-benzo[d]imidazol-2-yl)ethyl)cyclobutyl)(ethyl)amino)methyl)tetrahydrofuran-3,4-diol] | > 7.00
9 | CCN(C[C@H]1O[C@@H](n2cnc3c(N)ncnc32)[C@H](O)[C@@H]1O)[C@H]1C[C@H](CCc2nc3cc(C(C)(C)C)ccc3[nH]2)C1 [Compound 74, (2R,3R,4S,5R)-2-(6-amino-9H-purin-9-yl)-5-((((1s,3R)-3-(2-(5-(tert-butyl)-1H-benzo[d]imidazol-2-yl)ethyl)cyclobutyl)(ethyl)amino)methyl)tetrahydrofuran-3,4-diol] | > 7.00
10 | CC(C)N(C[C@H]1O[C@@H](n2ccc3c(N)ncnc32)[C@H](O)[C@@H]1O)[C@H]1C[C@H](CCc2nc3cc(C(C)(C)C)ccc3[nH]2)C1 [Compound 75, (2R,3R,4S,5R)-2-(4-amino-7H-pyrrolo[2,3-d]pyrimidin-7-yl)-5-((((1s,3R)-3-(2-(5-(tert-butyl)-1H-benzo[d]imidazol-2-yl)ethyl)cyclobutyl)(isopropyl)amino)methyl)tetrahydrofuran-3,4-diol] | > 7.00
11 | CCN(C[C@H]1O[C@@H](n2cnc3c(N)ncnc32)[C@H](O)[C@@H]1O)C1CC(CCc2nc3cc(C(C)(C)C)ccc3[nH]2)C1 (stereo partly drawn) [Compound 79, (2R,3R,4S,5R)-2-(6-amino-9H-purin-9-yl)-5-(((3-(2-(5-(tert-butyl)-1H-benzo[d]imidazol-2-yl)ethyl)cyclobutyl) (ethyl)amino)methyl) tetrahydrofuran-3,4-diol] | > 7.00
12 | CN(C[C@@H]1C[C@@H](O)[C@H](n2ccc3c(N)ncnc32)C1)[C@H]1C[C@@H](CCc2nc3cc(Cl)c(C(F)(F)F)cc3[nH]2)C1 [Compound 81, (1R,2R,4S)-2-(4-amino-7H-pyrrolo[2,3-d]pyrimidin-7-yl)-4-((((1r,3R)-3-(2-(5-chloro-6-(trifluoromethyl)-1H-benzo[d]imidazol-2-yl)ethyl)cyclobutyl) (methyl)amino)methyl) cyclopentanol] | 6.00 to 7.00
13 | CN(C[C@@H]1C[C@@H](O)[C@H](n2ccc3c(N)ncnc32)C1)[C@H]1C[C@H](CCc2nc3cc(Cl)c(C(F)(F)F)cc3[nH]2)C1 [Compound 85, (1R,2R,4S)-2-(4-amino-7H-pyrrolo[2,3-d]pyrimidin-7-yl)-4-((((1s,3S)-3-(2-(5-chloro-6-(trifluoromethyl)-1H-benzo[d]imidazol-2-yl)ethyl)cyclobutyl) (methyl)amino)methyl) cyclopentanol] | 4.30 to 5.00
14 | CN(C[C@H]1O[C@@H](n2ccc3c(N)ncnc32)[C@H](O)[C@@H]1O)[C@H]1C[C@@H](CCc2nc3cc(C(C)(C)C)ccc3[nH]2)C1 [Compound 86, (2R,3R,4S,5R)-2-(4-amino-7H-pyrrolo[2,3-d]pyrimidin-7-yl)-5-((((1r,3S)-3-(2-(5-(tert-butyl)-1H-benzo[d]imidazol-2-yl)ethyl)cyclobutyl) (methyl)amino)methyl) tetrahydrofuran-3,4-diol] | > 7.00
15 | CC(C)N(C[C@H]1O[C@@H](n2ccc3c(N)ncnc32)[C@H](O)[C@@H]1O)[C@H]1C[C@@H](CCc2nc3cc(OC(F)(F)F)ccc3[nH]2)C1 [Compound 87, (2R,3R,4S,5R)-2-(4-amino-7H-pyrrolo[2,3-d]pyrimidin-7-yl)-5-((isopropyl((1r,3S)-3-(2-(5-(trifluoromethoxy)-1H-benzo[d]imidazol-2-yl)ethyl)cyclobutyl)amino)methyl)tetrahydrofuran-3,4-diol] | > 7.00

same assay, conditions: read-out: DOT1L IC50

Row | SMILES | pIC50
16 | CC(C)N(C[C@H]1O[C@@H](n2ccc3c(N)ncnc32)[C@H](O)[C@@H]1O)[C@H]1C[C@H](CCc2nc3cc(C(C)(C)C)ccc3[nH]2)C1 [Compound 75, (2R,3R,4S,5R)-2-(4-amino-7H-pyrrolo[2,3-d]pyrimidin-7-yl)-5-((((1s,3R)-3-(2-(5-(tert-butyl)-1H-benzo[d]imidazol-2-yl)ethyl)cyclobutyl)(isopropyl)amino)methyl)tetrahydrofuran-3,4-diol] | 9.23
17 | CN(C[C@H]1O[C@@H](n2ccc3c(N)ncnc32)[C@H](O)[C@@H]1O)[C@H]1C[C@@H](CCc2nc3cc(C(C)(C)C)ccc3[nH]2)C1 [Compound 86, (2R,3R,4S,5R)-2-(4-amino-7H-pyrrolo[2,3-d]pyrimidin-7-yl)-5-((((1r,3S)-3-(2-(5-(tert-butyl)-1H-benzo[d]imidazol-2-yl)ethyl)cyclobutyl) (methyl)amino)methyl) tetrahydrofuran-3,4-diol] | 9.21
18 | CC(C)N(C[C@H]1O[C@@H](n2ccc3c(N)ncnc32)[C@H](O)[C@@H]1O)[C@H]1C[C@@H](CCc2nc3cc(OC(F)(F)F)ccc3[nH]2)C1 [Compound 87, (2R,3R,4S,5R)-2-(4-amino-7H-pyrrolo[2,3-d]pyrimidin-7-yl)-5-((isopropyl((1r,3S)-3-(2-(5-(trifluoromethoxy)-1H-benzo[d]imidazol-2-yl)ethyl)cyclobutyl)amino)methyl)tetrahydrofuran-3,4-diol] | 9.10
